Starred links: 1 amine or outer side, 2 acyl side, 3 side chain; linkers in the order of their positions; H or OH if unused. Non-standard residues stand in square brackets, D forms with d. Residues, ends and D or L forms follow the SMILES beside them. Groups on a side chain read outwards from the residue. *: point of attachment. C18 diacid = O=C(O)CCCCCCCCCCCCCCCCC(=O)*; γGlu = O=C(O)[C@H](CCC(=O)[*:2])N[*:1]; Ac4c = NC1(C(=O)O)CCC1; AEEA = NCCOCCOCC(=O)O; Aib = CC(C)(N)C(=O)O
Molecular target: T1, human GLP-1 receptor (Homo sapiens, UniProt P43220)
T1 construct: expressed in transfected cells; host or cells: membranes of BHK cells (parent BHKTS13), clone FCW467-12A
Assay: Assay (II)(a) GLP-1 receptor binding, 125I-GLP-1 displacement SPA on BHK membranes
Conditions: without presence of serum albumin; read-out: GLP-1R IC50 (nM) [Assay (II)(a)]
In short: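 Membranes from BHK cells (clone FCW467-12A) stably expressing human GLP-1R were incubated with serially diluted compounds (8×10EE-13 to 8×10EE-7 M before addition) and [125I]-GLP-1-(7-36)NH2 with WGA SPA beads, 2 h at 30° C, pH 7.4. IC50 taken from displacement by non-linear regression. Run at ≤0.001% or 2.0% final serum albumin.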

T1 sequence (P43220 24-463): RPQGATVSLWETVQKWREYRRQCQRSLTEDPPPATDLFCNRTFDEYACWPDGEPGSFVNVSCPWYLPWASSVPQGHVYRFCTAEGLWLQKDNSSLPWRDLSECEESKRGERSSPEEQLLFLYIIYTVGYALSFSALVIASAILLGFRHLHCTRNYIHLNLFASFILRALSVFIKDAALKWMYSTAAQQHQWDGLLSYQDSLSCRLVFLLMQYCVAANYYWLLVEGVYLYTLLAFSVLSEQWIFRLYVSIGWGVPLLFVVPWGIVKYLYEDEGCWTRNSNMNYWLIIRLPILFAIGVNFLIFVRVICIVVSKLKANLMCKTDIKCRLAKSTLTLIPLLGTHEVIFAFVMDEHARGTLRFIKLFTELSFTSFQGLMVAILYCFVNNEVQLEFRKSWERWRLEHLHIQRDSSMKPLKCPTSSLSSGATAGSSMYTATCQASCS

IC50 [nM]	Structure (SMILES)
0.3	CC[C@H](C)[C@H](NC(=O)[C@H](CC(C)C)NC(=O)[C@H](Cc1c[nH]c2ccccc12)NC(=O)[C@H](CCC(N)=O)NC(=O)[C@@H](NC(=O)[C@H](Cc1ccccc1)NC(=O)[C@H](CC(=O)O)NC(=O)[C@H](CCC(N)=O)NC(=O)[C@H](C)NC(=O)[C@H](CCCNC(=N)N)NC(=O)[C@H](CCCNC(=N)N)NC(=O)[C@H](C)NC(=O)[C@H](CC(=O)O)NC(=O)[C@H](CC(C)C)NC(=O)[C@H](Cc1ccc(O)cc1)NC(=O)[C@H](CCCCN)NC(=O)[C@H](CO)NC(=O)[C@H](CC(C)C)NC(=O)[C@H](CC(=O)O)NC(=O)[C@H](CO)NC(=O)[C@@H](NC(=O)[C@H](Cc1ccccc1)NC(=O)[C@@H](NC(=O)CNC(=O)[C@H](CCC(N)=O)NC(=O)C(C)(C)NC(=O)[C@@H](N)Cc1c[nH]cn1)[C@@H](C)O)[C@@H](C)O)C(C)C)C(=O)N[C@@H](CCCCNC(=O)COCCOCCNC(=O)COCCOCCNC(=O)CC[C@H](NC(=O)CC[C@H](NC(=O)CC[C@H](NC(=O)CCCCCCCCCCCCCCCCC(=O)O)C(=O)O)C(=O)O)C(=O)O)C(=O)N[C@H](C(N)=O)[C@@H](C)O [Chem. 7, N^ε28-[2-[2-[2-[[2-[2-[2-[[(4S)-4-carboxy-4-[[(4S)-4-carboxy-4-[[(4S)-4-carboxy-4-(17-carboxyheptadecanoylamino)butanoyl]amino]butanoyl]amino]butanoyl]amino]ethoxy]ethoxy]acetyl]amino]ethoxy]ethoxy]acetyl]-[Aib2,Leu10,Ala16,Ile27,Lys28]-Glucagon amide] (H-H[Aib]QGTFTSDLSKYLDARRAQDFVQWLIK([AEEA-AEEA-γGlu-γGlu-γGlu-C18 diacid])T-NH2; N-terminus assumed)
1.5	CC[C@H](C)[C@H](NC(=O)[C@H](CC(C)C)NC(=O)[C@H](Cc1c[nH]c2ccccc12)NC(=O)[C@H](CCC(N)=O)NC(=O)[C@@H](NC(=O)[C@H](Cc1ccccc1)NC(=O)[C@H](CC(=O)O)NC(=O)[C@H](CCCNC(=N)N)NC(=O)[C@H](C)NC(=O)[C@H](CCCNC(=N)N)NC(=O)[C@H](CCCNC(=N)N)NC(=O)[C@H](CO)NC(=O)[C@H](CCC(=O)O)NC(=O)[C@H](CC(C)C)NC(=O)[C@H](Cc1ccc(O)cc1)NC(=O)[C@H](CCCNC(=N)N)NC(=O)[C@H](CO)NC(=O)[C@H](Cc1ccc(O)cc1)NC(=O)[C@H](CC(=O)O)NC(=O)[C@H](CO)NC(=O)[C@@H](NC(=O)[C@H](Cc1ccccc1)NC(=O)[C@@H](NC(=O)CNC(=O)[C@H](CCC(N)=O)NC(=O)C1(NC(=O)[C@@H](N)Cc2c[nH]cn2)CCC1)[C@@H](C)O)[C@@H](C)O)C(C)C)C(=O)N[C@@H](CCCCNC(=O)CC[C@H](NC(=O)COCCOCCNC(=O)CC[C@H](NC(=O)COCCOCCNC(=O)CC[C@H](NC(=O)COCCOCCNC(=O)CC[C@H](NC(=O)CC[C@H](NC(=O)CCCCCCCCCCCCCCCCC(=O)O)C(=O)O)C(=O)O)C(=O)O)C(=O)O)C(=O)O)C(=O)N[C@H](C(N)=O)[C@@H](C)O [Chem. 36, N^ε28-[(4S)-4-carboxy-4-[[2-[2-[2-[[(4S)-4-carboxy-4-[[2-[2-[2-[[(4S)-4-carboxy-4-[[2-[2-[2-[[(4S)-4-carboxy-4-[[(4S)-4-carboxy-4-(17-carboxyheptadecanoylamino)butanoyl]amino]butanoyl]amino]ethoxy]ethoxy]acetyl]amino]butanoyl]amino]ethoxy]ethoxy]acetyl]amino]butanoyl]amino]ethoxy]ethoxy]acetyl]amino]butanoyl]-[Acb2,Arg12,Glu15,Arg20,Ile27,Lys28]-Glucagon amide] (H-H[Ac4c]QGTFTSDYSRYLESRRARDFVQWLIK([γGlu-AEEA-γGlu-AEEA-γGlu-AEEA-γGlu-γGlu-C18 diacid])T-NH2; N-terminus assumed)

— patent US10570184B2, “GLP-1/glucagon receptor co-agonists for medical use” (Novo Nordisk A/S, priority 2014, dated 2020)
